Laboratory results as given in patent US7105536B2, “Compounds” (SmithKline Beecham plc, priority 1999, dated 2006).

Tested on: male rats (Sprague Dawley)
Assay: Maximal electroshock seizure (MEST) threshold test, rat model
Assay type: in vivo
Settings: 2 mg/kg p.o. at 2 h, suspended in 1% methyl cellulose
Description: The maximal electroshock seizure (MEST) threshold test in rodents is particularly sensitive for detecting potential anticonvulsant properties^1. In this model, anticonvulsant agents elevate the threshold to electrically-induced seizures whilst proconvulsants lower the seizure threshold.
The threshold for maximal (tonic hindlimb extension) electroshock seizures in male rats (Sprague Dawley, 80–150 g, 6 weeks old) was determined by a Hugo Sachs Electronik stimulator which delivered a constant current (0.3 sec duration; from 1–300 mA in steps of 5–20 mA). The procedure is similar to that outlined above for mouse and full details are as published by Upton et al,.^4
The percentage increase or decrease in CC50 for each group compared to the control is calculated. Drugs are suspended in 1% methyl cellulose.

Structure (SMILES): CC(C)c1ccc(C(=O)Nc2cc(Cl)c3c(c2)CNCC3)cc1C#N [Example 3, N-(5-Chloro-1,2,3,4-tetrahydroisoquinolin-7-yl)-3-cyano-4-iso-propyl benzamide]
- percentage increase in CC50 compared to the control: 140%

Structure (SMILES): CCOc1ccc(C(=O)Nc2cc(Cl)c3c(c2)CNCC3)cc1Br [Example 7, N-(5-Chloro-1,2,3,4-tetrahydroisoquinolin-7-yl)-3-bromo-4-ethoxybenzamide]
- percentage increase in CC50 compared to the control: 410%

Structure (SMILES): CCOc1ccc(C(=O)Nc2cc(Cl)c3c(c2)CNCC3)cc1Cl [Example 2, N-(5-Chloro-1,2,3,4-tetrahydroisoquinolin-7-yl)-3-chloro-4-ethoxy benzamide]
- percentage increase in CC50 compared to the control: 390%

Structure (SMILES): COc1ccc(C(=O)Nc2cc(Cl)c3c(c2)CNCC3)cc1C#N [Example 5, N-(5-Chloro-1,2,3,4-tetrahydroisoquinolin-7-yl)-3-cyano-4-methoxybenzamide]
- percentage increase in CC50 compared to the control: 210%

Structure (SMILES): CC(=O)c1cc(C(=O)Nc2cc(Cl)c3c(c2)CNCC3)ccc1OC(C)C [Example 8, N-(5-Chloro-1,2,3,4-tetrahydroisoquinolin-7-yl)-3-acetyl-4-iso-propoxybenzamide]
- percentage increase in CC50 compared to the control: 114%
